# Reference: US11058690B2, “Use of cytochrome bc1 complex inhibitor in preparing pharmaceutical composition” (BEIJING WEILANZHIYUAN MEDICAL TECHNOLOGY CO., LTD., priority 2017, dated 2021)
# How the values were obtained:
# [1] = tested on: SD rats; assay: carrageenan-induced rat paw swelling test; format: in vivo
# Method: Eighteen healthy adult male mice were randomly divided into 3 groups. FAPM (100 mg/kg) was administered intraperitoneally once a day for 3 consecutive days. The control group was injected with the same amount of solvent, and the positive drug dexamethasone (4 mg/kg) was administered intragastrically once a day for 3 consecutive days. Thirty minutes after the last administration, 0.1 mL of 1% carrageenan was injected subcutaneously into the right hind paw of each rat, and the plantar thickness was measured before injection and 1, 2 and 3 hours after injection. Three hours later, the rats were sacrificed by dislocation. The feet were cut off from the knee joints and weighed on a precision balance. The swelling degree of the paw (right foot weight-left foot weight) was calculated.
# [2] = tested on: MLC20; assay: phosphorylation of MLC20 in rat uterine smooth muscle cells induced by PGF2α (Western blotting); format: cell-based; conditions: 5 μM and 10 μM pretreatment; PGF2α stimulation 5 minutes
# Description: A tissue mass culture method was adopted: rats treated with diethylstilbestrol were sacrificed through dislocation and soak in 75% alcohol for disinfection, open the abdominal cavity under an aseptic condition, separate the uterus, transfer it to a plate, cut open the uterus to remove the outer membrane of the uterus, gently scrape off the inner membrane of the uterus with a blade, gently peel off the outer membrane of the uterus with a tweezer, cut the intact smooth muscle into small pieces of less than 1×1×1 mm^3, uniformly stick them to the wall of a culture bottle, add a culture solution with the bottom up, gently turn over after culture at 5% CO2 and 37° C. for 3-4 hours, and soak in an RPMI-1640 culture solution (containing 20% calf bovine serum) for about one week until the cells can be connected into pieces to form monolayer cultured cells. At this time, the culture solution in the bottle was poured out, the tissue masses in the bottle were washed twice with PBS and removed, and a proper amount of 0.25% trypsin was added. Calf bovine serum was added to stop the reaction when most cells contracted and became round under microscope, the liquid was poured out, and the cells were washed twice with PBS and added with a proper amount of RPMI-1640, and the eluted cells were gently washed with a pipette to prepare a cell suspension for later use. […]
# [3] = tested on: rat uterine smooth muscle; assay: contraction of rat uterine smooth muscle induced by potassium chloride; format: cell-based; conditions: potassium chloride (16 mM)
# Method: Female healthy Wistar rats weighing 230-270 g were used in the experiment. At 2 days before the experiment, Diethylstilbestrol suspension was injected intraperitoneally once at 0.1 mg/kg, resulting in artificial estrus. The rats were sacrificed by cervical dislocation, and the uterus was removed by laparotomy and immediately placed in a glass plate containing Tyrode's solution. […] The materials stood for 20-30 minutes, liquid was changed 2-3 times, then the uterus was given a load of 1 g and kept for 30-60 minutes until the uterus had regular contraction waves, 40 mM KCL solution was provided for 10 minutes, and the function of the uterine muscle strips was evaluated. Then the muscle strips were relaxed and washed 2-3 times with Tyrode's solution, then let stand for 30 minutes; after standing, the uterine muscle strips were given a load of 1 g and kept for 30-60 minutes, and the administration and the observation were carried out after the uterine muscle strips contracted stably (i.e. regular contraction waveforms appear in a microcomputer display screen), the changes of relevant data such as contraction tension, amplitude and area under the contraction curve of the uterine smooth muscle strips were recorded, and the drug given was evaluated. […]
# [4] = tested on: Kunming female mice; assay: PGF2α-induced dysmenorrhea model in mice (diethylstilbestrol sensitization); format: in vivo, mouse; conditions: for Number of writhing times: within 30 min
# Method: A mouse dysmenorrhea model was established with reference to Yang L., Cao Z., Yu B. & Chai C. An in vivo mouse model of primary dysmenorrhea. Exp Anim. 2015, August 64, 295-303. Adult healthy Kunming female mice were randomly grouped, 10 mice in each group. Experimental mice were intragastrically given diethylstilbestrol 0.2 mg daily for 12 days. Different kinds and dosages of the inhibitors of the cytochrome bc1 complex were given intraperitoneally or intragastrically 30 min after the last administration. Indometacin (50 mg/kg) was injected intraperitoneally as positive control, PGF2α (1.3 mg/kg) or oxytocin (20 U/kg) was injected intraperitoneally 1 h later, and the writhe starting time (reaction latency) and the number of writhing times within 30 min were observed and recorded.
# [5] = Table 7, 100 mg/Kg intraperitoneal
# [6] = Table 7, 200 mg/Kg intraperitoneal
smiles,measurement,setting,value
"CO/C=C(/C(=O)OC)c1ccccc1COc1cc(C(F)(F)F)nc(OC(C)C)n1 [FAPM, fluacrypyrim]",Paw swelling thickness 1 h,"[1]; 100 mg/Kg intraperitoneal once a day for 3 days, 1 h after carrageenan",5.72 ± 0.29 mm
same,Paw swelling thickness 2 h,"[1]; 100 mg/Kg intraperitoneal once a day for 3 days, 2 h after carrageenan",5.92 ± 0.19 mm
same,Paw swelling thickness 3 h,"[1]; 100 mg/Kg intraperitoneal once a day for 3 days, 3 h after carrageenan",6.24 ± 0.20 mm
same,Paw swelling (right foot weight-left foot weight),"[1]; 100 mg/Kg intraperitoneal once a day for 3 days, 3 hours after carrageenan",0.834 ± 0.32 g
same,carrageenan-induced rat paw swelling,[1]; 100 mg/kg intraperitoneal,significantly inhibited
same,"phosphorylation of MLC20 (gray analysis, words)",[2],significantly inhibited
same,IC50,[3],1210 ± 70 nM
same,curative effect compared with indomethacin,[4]; 50 mg/Kg versus indomethacin 50 mg/Kg,equivalent to indomethacin at 50 mg/Kg
same,Writhe starting time,[4]; 200 mg/Kg intraperitoneal,significantly prolonged
same,effect on number of writhing times,"[4]; FAPM intraperitoneal, azoxystrobin intragastric, 50, 100 and 200 mg/Kg one hour before",in a dose-dependent manner
same,Writhe starting time,"[4]; Table 7, 50 mg/Kg intraperitoneal",1.24 ± 0.66 min
same,Number of writhing times,"[4]; Table 7, 50 mg/Kg intraperitoneal, 1 h before PGF2α (1.3 mg/kg)",18.3 ± 3.3
same,Writhe starting time,[4]; [5],1.43 ± 0.73 min
same,Number of writhing times,[4]; [5],12.5 ± 1.7
same,Writhe starting time,[4]; [6],2.15 ± 0.34 min
same,Number of writhing times,[4]; [6],5.8 ± 1.2
